The record followed here is PMC6934184, “Selective DNA-PKcs inhibition extends the therapeutic index of localized radiotherapy and chemotherapy” (The Journal of Clinical Investigation, 2019).

Each structure is given as a SMILES string.

This assay has as its target T1, BRAF V599E (Homo sapiens, UniProt P15056, V600E).
T1 construct: purchased Thermo Fisher Scientific (Life Technologies) SelectScreen
Briefly: SelectScreen Z'LYTE. The note with it: ATP 100 µM. The assay is classed as biochemical. In a few lines:
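Percent values come from Thermo SelectScreen profiling of NU5455, combining activity and binding assays. CSF1R was run in Z'LYTE format at Km app ATP, and CAMK1 in Adapta format with ATP listed at 10.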

T1 sequence (P15056 417-766 V600E limits assumed): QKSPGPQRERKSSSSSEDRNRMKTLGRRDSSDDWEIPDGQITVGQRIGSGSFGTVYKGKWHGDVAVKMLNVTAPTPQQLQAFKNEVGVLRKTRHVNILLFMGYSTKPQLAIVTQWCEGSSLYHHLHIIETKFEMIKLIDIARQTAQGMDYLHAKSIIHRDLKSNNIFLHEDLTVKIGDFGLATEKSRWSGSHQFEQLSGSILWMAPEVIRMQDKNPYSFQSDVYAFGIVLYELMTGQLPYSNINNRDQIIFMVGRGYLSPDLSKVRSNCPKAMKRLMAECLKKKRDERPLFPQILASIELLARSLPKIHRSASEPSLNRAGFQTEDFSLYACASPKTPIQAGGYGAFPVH

The compound `CN(C(=O)CN1CCOCC1)c1ccc2sc3c(-c4cccc5c(=O)cc(N6CC7CCC(C6)O7)oc45)cccc3c2c1` [NU5455] showed an inhibition at 1 µM of 18.3%.

As a reminder, the inhibition is the drop in the measured response relative to a control, in per cent. A high value points to strong suppression.
